Common to all, as to type: cell-based
For one assay, the system named is human skin explants. As to the kind of experiment: General morphology (Masson Trichrome) of human skin explants treated topically with AcSDKP. Here is the method: (§1) This study was conducted on thirty six human skin explants obtained from breast plastic surgery.
(§2) All the explants were maintained in a state of survival in a culture medium for eight days. AcSDKP at a concentration of 10^−5 M or 10^−8 M in physiological serum was applied to the explants by topical route every day for one week. On days 2, 4, 6 and 8, three explants from each batch (control, +AcSDKP 10^−5 M+ AcSDKP 10^−8 M) were removed and prepared for histological studies. General morphology was examined and an evaluation of the expression of basal keratin (CK14), undifferentiated keratin (CK19), collagen III, collagen IV, fibronectin and glycosaminoglycan without an acid group was performed.
This is seen by an increased number of live cell bases.

A further assay relates to Keratin 14 (CK14). As to the kind of experiment: Immunolabelling of keratin 14 in human skin explants. Here is the method:
as §1, §2

The test system of the next assay is Keratin 19 (CK19). As to the kind of experiment: Immunolabelling of keratin 19 in human skin explants. Here is the method:
as §1, §2

Assay [1] relates to Dermal Collagen (Type III). As to the kind of experiment: Immunolabelling of collagen III in human skin explants. Here is the method: as §1, §2
Assay [2] deals with Basal Membrane Collagen (Type IV). As to the kind of experiment: Immunolabelling of collagen IV in human skin explants. Here is the method: as §1, §2
A further assay relates to fibronectin. As to the kind of experiment: Immunolabelling of fibronectin in human skin explants. Here is the method: as §1, §2
In a further assay the test system is Glycosaminoglycan (GAGs). As to the kind of experiment: P.A.S. Alcian blue staining of GAGs without acid groups in human skin explants. Here is the method: as §1, §2
This effect, clearly visible at D6 and D8, is characterised by a PAS positive increase in the number of fibroblasts in the papillary dermis, especially in the band situated along the dermo-epidermal junction and by increased levels of GAGs in these fibroblasts.

[3] abbreviates: AcSDKP 10^-5 M compared with 10^-8 M.

Consider one substance from patent US8697652B2, “Cosmetic use of at least the natural tetrapeptide Ac-Ser-Asp-Lys-Pro or one of its analogs as a skin restructuring agent” (Centre National de la Recherche Scientifique (CNRS), priority 2004, dated 2014).

Ends that are not written are not given here.

Turning to “Acetyl-Ser-Asp-Lys-Pro (Ac-SDKP) [AcSDKP, natural tetrapeptide isolated from calf foetus bone marrow or obtained by peptide synthesis]”, the “increase in epidermal thickness” value in the assay on human skin explants (setting [3]) was “greater”. In the assay on human skin explants (AcSDKP 10^-5 M or 10^-8 M, topical daily, as of D6 of treatment), the “epidermal structure (general morphology)” value is recorded as “stimulation of the epidermal structure”. In the assay with human skin explants (conclusion of explant study), the “overall effect on epidermis and dermis (conclusion)” value was “restructuring of the epidermis and dermis”. In the assay with Keratin 14 (CK14) (setting [3]), the CK14 restructuring effect entry was “greater”. Further, the “CK14 levels (immunolabelling)” value in the assay on Keratin 14 (CK14) (basal and superbasal position, as of D4 of treatment) is given as “gradual increase in the levels of this protein”. Further, in the assay with Keratin 14 (CK14) (summary statement), the “production of CK14 in treated skin (summary)” value was “stimulates the production”. Besides, the CK19 effect entry with Keratin 19 (CK19) (setting [3]) is “less marked effect”. The “CK19 expression (immunolabelling)” value in the assay on Keratin 19 (CK19) (AcSDKP 10^-5 M or 10^-8 M, as of D6 of treatment) is listed as “overexpression of the skin's dermal attachments”. In addition, in the assay with Keratin 19 (CK19) (summary statement), the “production of CK19 in treated skin (summary)” value is on record as “stimulates the production”. For the same substance, the “collagen III expression” value in assay [1] (AcSDKP 10^-5 M, D8) is “very clear overexpression of collagen III in the papillary and reticular dermis”. The “collagen III levels” value in assay [1] (AcSDKP 10^-5 M, six days of treatment) is reported as “very marked increase in collagen III levels in the papillary dermis along the dermo-epidermal junction”. Besides, the “collagen III in the remainder of the papillary dermis and reticular dermis” value in assay [1] (AcSDKP 10^-8 M, D6) is “more present”. Moreover, the “collagen III expression along the dermo-epidermal junction” value in assay [1] (AcSDKP 10^-8 M, D6, compared with 10^-5 M) is listed as “less pronounced”. Also, the “level of collagen III” value in assay [1] (AcSDKP 10^-8 M, D8) is “increases along the dermo-epidermal junction and forms a thicker collagen band”. The “expression of collagen III in treated skin (summary)” value in assay [1] (summary statement) was “stimulatory effect”. The “increase in collagen IV levels” value in assay [2] (setting [3]) was “higher”. The “increase in collagen IV levels in the basal membrane along the dermo-epidermal junction” value in assay [2] (AcSDKP 10^-5 M or 10^-8 M, D6 and D8, compared with type III collagen) is recorded as “less pronounced than that for type III collagen”. Moreover, the “expression of collagen IV in treated skin (summary)” value in assay [2] (summary statement) was “stimulatory effect”. Further, the fibronectin activity entry in the assay on fibronectin (setting [3]) is given as “greater activity”. Also, the fibronectin network result in the assay on fibronectin (area treated with AcSDKP) is “denser and has thicker fibres”. The “fibronectin expression (immunolabelling, summary)” value with fibronectin (treated skin) is “overexpression of this protein along a dermo-epidermal junction as well as in the papillary and reticular dermis”. Moreover, the GAG activity result in the assay on Glycosaminoglycan (GAGs) (setting [3]) is given as “higher level of activity”. For the same substance, the “levels of GAGs without acid groups” value in the assay with Glycosaminoglycan (GAGs) (AcSDKP 10^-5 M or 10^-8 M, clearly visible at D6 and D8) is listed as “significant increase in the levels of these compounds”.
